# Measurements taken from US12215106B2, “Pharmaceutical compounds and therapeutic methods” (RUTGERS, THE STATE UNIVERSITY OF NEW JERSEY, priority 2018, dated 2025).
# Where a name gives a salt, the structure may show the parent alone.
# Test system: STAT1
# Assay: Western blotting of STAT1 protein levels in GBM spheres
# Format: cell-based, human
# Conditions: 72 hours
# Protocol: GBM cells were treated with DMSO or different concentrations of the test compounds for 72 hours. Cells were lysed in Cell Lysis Buffer (Cell Signaling, #9803) supplemented with Protease Inhibitor Cocktail (Sigma, #P8340), sonicated briefly while on ice and spun down for 30 minutes at 4° C., after which the supernatant was collected. For each sample, 2 uL of lysate was mixed well into 198 uL de-ionized water. Next, 10 uL of this diluted sample was added to a well in a 96 well plate in quadruplets and mixed with Protein Assay Dye Reagent Concentrate (Bio-Rad, #500-0006) (which was diluted 1:5 with water). BSA standards of 25 ng, 50 ng, 100 ng, 200 ng and 250 ng were also used to the plate and mixed with the reagent. The plate was read in a plate reader at 600 nm and samples were calibrated to the standards to determine the concentration of protein. Using the NuPAGE system (Invitrogen), 25 ug of protein was mixed with NuPAGE LDS 4× Sample Buffer (#NP0007), NuPAGE 10× Reducing Agent (#NP0004) and water, mixed well and heated at 96° C. for 15 minutes to denature the protein. The samples were then loaded into 4-12% Bis-Tris gels (Novex (Invitrogen), #0323) with a protein ladder (Novex (Invitrogen) Sharp Pre-stained protein ladder, #57318) and run at 100-120V for about 2 hours with NuPAGE 20×SDS MES Running Buffer (#NP0002) diluted with water. Next, the gel was taken out and loaded into a NuPAGE transfer cassette with a polyvinylidene membrane with NuPAGE 20× Transfer Buffer (#NP0006-1) diluted with water and methanol. Proteins were transferred for 1 hour at 30V at room temperature. Blocking was performed using the Millipore SNAP i.d. Protein Detection system in 0.25% non-fat dry milk in 0.1% Tween in PBS (PBST). […] Protein signals were detected using ECL Western Blotting Substrate (Pierce, #32106) and filmed. […]
row,SMILES,STAT1 protein levels
1,"[2H]C1([2H])Oc2ccc(Nc3nc(-c4c(C)nc5ccccn45)cs3)cc2O1 [Compound 17, N-(benzo[d][1,3]dioxol-5-yl-2,2-d2)-4-(2-methylimidazo[1,2-c]pyridin-3-yl)thiazol-2-amine hydrochloride]",lowered STAT1
2,"[2H]C([2H])([2H])Oc1ccc(Nc2nc(-c3c(C)nc4ccccn34)cs2)cc1 [Compound 15, N-(4-(methoxy-d3)phenyl)-4-(2-methylimidazo[1,2-c]pyridin-3-yl)thiazol-2-amine hydrochloride]",lowered STAT1
3,"COc1c(F)cc(Nc2nc(-c3c(C)nc4ccccn34)cs2)cc1F [Compound 14, hydrochloride]",lowered STAT1
